According to patent US20110195924A1, “Methods of Inhibiting the Interaction Between S100P and the Receptor for Advanced Glycation End-Products” (priority 2008, published 2011):
“Also recorded” adds a separate entry of the source.

How the values were obtained:
S100B with RAGE = biological target: T1, S100B with RAGE (Homo sapiens, UniProt P04271); assay: ELISA of S100B binding to RAGE (sRAGE coated plate)
T1 sequence (P04271 1-92): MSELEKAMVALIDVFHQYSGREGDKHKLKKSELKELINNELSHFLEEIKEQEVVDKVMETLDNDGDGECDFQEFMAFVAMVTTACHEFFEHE
Source text: After removing un-bound S100B by washing with detergent, bound S100B and RAGE complex was quantified by adding HRP labeled antibody against S100B.

NFkB activity = assay: S100P induced NFkB activity in cancer cells (analogs); assay type: cell-based
Description: (§1) Various cromolyn-based analogs were developed. The effects of the analogs on binding of S100P with RAGE were evaluated for the analogs using a sandwich ELISA. The effectiveness of the analogs to block cancer cell proliferatin and increase apoptosis in vitro were analyzed with and without cisplatin, 5-flurouracil and gemcitabine by MTS and FACS analysis. We also examined the ability of the analogs to inhibit S100P activation of NFkB signaling in cancer cells in vitro and in vivo. Finally, the effects of the novel analogs on tumor growth in vivo was evaluated.

pancreatic cancer cells = assay: Apoptosis of pancreatic cancer cells with cromolyn analogs and cytotoxic drugs; assay type: cell-based
Description: as §1, with “evaluated. One analog, C5OH is shown below:” for “evaluated.”
In this in vitro study, pancreatic cancer cells were treated with gemcitabine alone or in the presence of cromolyn analogs. The cromolyn analogs themselves have very little effect on the rates of cellular apoptosis, supporting their absence of general toxicity. However, all cromolyn analogs increased the killing of pancreatic cancer cells by gemcitabine.

MPanc96 tumors = assay: MPanc96 pancreatic tumor growth and survival in mice (analogs); assay type: in vivo; settings: mouse, in vivo
Description: as §1, with “evaluated. One analog, C5OH is shown below:” for “evaluated.”
Animals were implanted with MPanc96 cells, a gemcitabine resistant model of pancreatic cancer, and then treated with gemcitabine, C5OH, or the combination. […] Noteworthy, the addition of the hydroxyl group to the carbon chain in C5 allows easy modifications of this molecule. The hydroxyl can be substituted with fluoride that can be labeled for in vivo PET imaging. This hydroxyl can also be used to develop a pro-drug form of C5 by attaching other components with an ester bond.

S100P binding with RAGE = biological target: T2, S100P binding with RAGE (Homo sapiens, UniProt P25815); assay: ELISA of S100P binding to RAGE (sRAGE coated plate)
T2 construct: full-length human S100P cDNA (NM_005980) was cloned into the pTrcHis2 vector; His; made in house; host or cells: bacteria (S100P)
T2 sequence (P25815 1-95): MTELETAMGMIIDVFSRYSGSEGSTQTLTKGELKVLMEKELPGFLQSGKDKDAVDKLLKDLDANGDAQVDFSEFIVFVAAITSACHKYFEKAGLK
Description: After removing un-bound S100P by washing with detergent, the bound S100P and RAGE complex was quantified by adding HRP labeled antibody against S100P. *, P=0.04 C5 1 μM versus cromolyn 5 μM. Two-tailed two-sample (unpaired) Student's t-tests were used to determine P values.
The plate was washed and the amount of bound S100P was quantitated using anti-S100P antibody.
The binding of S100P to RAGE was determined using an ELISA assay. sRAGE was attached to the dish and recombinant S100P (50 ng) was added with or without the indicated concentrations of cromolyn analogs. The plate was washed and the amount of bound S100P was quantitated using anti-S100P antibody.

NFκB activity = assay: S100P stimulated NFκB luciferase reporter in MPanc-96 cells; assay type: cell-based, Human; settings: S100P 100 nM, 5 hours
Description: MPanc-96 pancreatic cancer cell lines stably expressing an NFκB luciferase reporter were examined for the effects of S100P, cromolyn and C5. Cells were plated at 5.0×10^3 cells/well, treated for 5 hours with 100 nM of S100P, with or without cromolyn and C5 (1 μM), and activity of a luciferase gene driven by the NFkB promoter was analyzed. P=0.05 C5 versus cromolyn. Two-tailed two-sample (unpaired) Student's t-tests were used to determine P values.

BxPC-3 cells = assay: BxPC-3 cell viability, alone or with gemcitabine; assay type: cell-based; settings: 72 hours
Description: BxPC-3 cells were plated at 1.0×10^3 cells/well and treated with 0 μM, 1 μM, 10 μM, and 100 μM of cromolyn or C5 alone or in combination with gemcitabine 1 μM and cell viability was analyzed after 72 hours. Two-tailed two-sample (unpaired) Student's t-tests were used to determine P values. […] BxPC-3 cells were plated at 1.0×10^3 cells/well and treated with either 100 μM of cromolyn or 1 μM C5 alone or in combination with gemcitabine (1 μM) and cell viability was analyzed after 72 hours.

MPanc-96 cells = assay: MPanc-96 cell apoptosis by flow cytometry, alone or with gemcitabine; assay type: cell-based, Human; settings: 100 and 1000 nM, 72 hours
Description: FIG. 11 compares the effects of cromolyn and C5 alone and in combination with gemcitabine on MPanc-96 cell apoptosis. MPanc-96 cells were treated with cromolyn or C5 (100 and 1000 nM) with (+) or without (−) gemcitabine (10 μM). Apoptosis was analyzed after 72 hours by flow cytometry.

## O=C([O-])c1cc(=O)c2c(OCCCCCOc3cccc4oc(C(=O)[O-])cc(=O)c34)cccc2o1.[Na+].[Na+] [C5, disodium 1,5-bis(2-carboxychromon-5-yloxy)pentane]
S100B with RAGE
  interaction of S100B with RAGE: inhibit
NFkB activity
  inhibition of S100P induced NFkB activity relative to cromolyn: more potently and effectively than did cromolyn
Pancreatic cancer cells
  cancer cell apoptosis in response to various cytoxic treatments, relative to cromolyn: at lesser concentrations and to a greater extent than did cromolyn
Pancreatic cancer cells; with gemcitabine, C5 and C5OH at 10-fold lower concentration than cromolyn
  killing of pancreatic cancer cells by gemcitabine: worked equally well
MPanc96 tumors
  inhibition of tumor growth and survival in vivo, relative to cromolyn: superior to cromolyn
S100P binding with RAGE
  blocking of the interaction / binding of S100P with RAGE: blocked
S100P binding with RAGE; FIG. 7
  concentration achieving the same level of S100P inhibition: 100 nM
S100P binding with RAGE; analogs at 10-fold lower concentration than cromolyn
  potency in blocking S100P binding to RAGE relative to cromolyn or C5: nearly equally potent and more efficient than cromolyn; also recorded: better than cromolyn
NFκB activity; 1 μM
  reduction of S100P induced NFκB activity relative to cromolyn at the same dose: much better than cromolyn
NFκB activity; compound 1 μM
  NFκB activity in pancreatic cancer cells in vitro: inhibit
BxPC-3 cells; BxPC-3, 1-100 μM with gemcitabine 1 μM
  inhibiting cell viability in combination with gemcitabine, relative to cromolyn: more potent and efficacious
BxPC-3 cells; BxPC-3, 10 or 100 μM
  blocking cell growth alone, relative to cromolyn: more potent and more efficacious than cromolyn
BxPC-3 cells; BxPC-3, gemcitabine 1 μM, FIG. 10
  concentration giving the same level of cell reduction in combination with gemcitabine: 1 µM
BxPC-3 cells; alone and in conjunction with gemcitabine 1 μM
  BxPC-3 cell viability: inhibit
MPanc-96 cells; MPanc-96, gemcitabine 10 μM
  apoptosis in combination with gemcitabine, relative to cromolyn with gemcitabine: induced more apoptosis than cromolyn
MPanc-96 cells; alone and in conjunction with gemcitabine 10 μM
  MPanc-96 cell viability: inhibit
